Test results reported in patent US9730442B2, “Use of 4-phenylbutyric acid for improving the tolerance of plants to harmful biological organisms” (INSTITUT DE RECHERCHE POUR LE DÉVELOPPEMENT (IRD), priority 2012, dated 2017).

How the values were obtained:
[1] = test system: nonhost hypersensitive cell death induced by Pseudomonas syringae pv. tomato; assay: Nonhost hypersensitive cell death in tobacco interacting with Pseudomonas syringae pv. tomato (data not presented); format: in vivo
Method: (§1) The effect of 4-PBA on cell death of hypersensitive nature was tested on several pathosystems, including those presented in FIGS. 1 & 2, namely Gossypium hirsutum/Xanthomonas campestris pv. malvacearum and Arabidopsis thaliana/Pseudomonas syringae. pv. tomato, respectively. […] The latter data concern hypersensitive cell death induced in tobacco by an elicitor of fungal origin, cryptogein, and nonhost hypersensitive cell death in tobacco interacting with the bacterium Pseudomonas syringae pv. tomato.

[2] = test system: genes encoding BiP1,2, BiP3, CNX1 and CRT1; assay: Real-time quantitative PCR of endoplasmic reticulum chaperone genes in A. thaliana leaves; format: in vivo, Arabidopsis thaliana; settings: 44 hours post-inoculation, FIG. 3
Method: The 4-PBA solutions used in the experiments described hereinafter were prepared as described in Example 1.
The infection with Pst (avirulent strain DC3000::AvrRpt2) was carried out under the same conditions as those described above. An additional condition was added, corresponding to the infiltration of a solution of 4-PBA (1 mM) alone into the A. thaliana leaves.
Samples were harvested 44 hours post-inoculation, frozen in liquid nitrogen and then stored at −80° C. until total RNA extraction. The total RNA was reverse transcribed so as to synthesize cDNAs. These cDNAs were used as a template in real-time quantitative PCR experiments. Primers specific for the genes encoding the binding proteins (BiP1,2 and BiP3), calnexin 1 (CNX1) and calreticulin 1 (CRT1) were designed so as to measure the expression of these genes. The expression of the genes of interest was standardized with respect to that of an actin gene. These experiments were repeated once, including one as a duplicate per experiment.

[3] = test system: tobacco leaves (plant cells); assay: Concentration range infiltrated into tobacco leaves, macroscopic symptoms; format: in vivo, Nicotiana tabacum; settings: 4-PBA at 0.5, 1, 2.5 and 5 mM infiltrated into tobacco leaves; 48 hours post-infiltration; FIG. 4A
Method: (§2) The concentration range presented in FIG. 4A was produced by infiltration into tobacco leaves of 4-PBA solutions at 0.5, 1, 2.5 and 5 mM. The macroscopic symptoms were evaluated 48 hours post-infiltration. Samples were also harvested at the times indicated in FIG. 4B and treated as described above so as to be analyzed by real-time quantitative PCR. Primers specific for all of the nine genes encoding BiP proteins were designed for this purpose.

[4] = test system: hypersensitive cell death induced by Pseudomonas syringae pv. tomato (Pst, avirulent strain DC3000::AvrRpt2); assay: Hypersensitive cell death induced by Pst infiltration into Arabidopsis thaliana leaves; format: in vivo; settings: 4-PBA 1 mM co-infiltrated with Pst DC3000::AvrRpt2 at 10^7 cfu/ml; six days post-inoculation; FIG. 2
Method: (§3) A stock solution of 4-PBA (10 mM) was prepared extemporaneously by dissolving powder in sterile distilled water. In order to allow complete dissolution of the 4-PBA, the solution was heated at 50° C. for 10 minutes.
The bacteria (Pst, avirulent strain DC3000::AvrRpt2) were cultured overnight in a rich nutritive medium (King B). After sedimentation by centrifugation, said bacteria were washed with sterile distilled water before being resuspended at a concentration of 10^7 cfu/ml. The resuspending of the cells is carried out either in sterile distilled water, or in a solution of 4-PBA at 1 mM. These suspensions were then infiltrated into the leaves of the Arabidopsis thaliana rosette. The macroscopic symptoms were monitored over a period of six days post-inoculation.

[5] = test system: Xcm race 20; assay: In vitro bacterial growth in King B liquid medium, absorbance at 600 nm; format: cell-based, Xanthomonas campestris pv. malvacearum; settings: 4-PBA 1 mM in King B liquid medium; approximately 16 hours, 30° C.; FIG. 5
Method: The effect of 4-PBA on phytopathogenic bacteria was tested in vitro on the bacterial strain Xcm race 20. The strain was cultured in King B liquid medium in the presence or absence of 4-PBA. The 4-PBA solution was prepared extemporaneously as described above. The nutritive medium was inoculated either using glycerol stocks, or using bacterial colonies freshly cultured in solid medium. The nutritive medium was then supplemented with the 4-PBA solution in order to achieve a final concentration of 1 mM (final volume of 10 ml). […] The tubes were then incubated overnight (approximately 16 hours) with gentle shaking at 30° C. The bacterial growth was then measured by nephelometry by measuring the absorbance of an aliquot of the bacterial cultures at 600 nm. This experiment was repeated three times. Each experiment contained one technical triplicate per condition, i.e. condition with 4-PBA and condition without 4-PBA.

[6] = test system: genes encoding BiP proteins; assay: Real-time quantitative PCR of BiP genes in tobacco leaves; format: in vivo, Nicotiana tabacum; settings: 4-PBA infiltrated into tobacco leaves; FIG. 4B
Method: as §2

[7] = test system: hypersensitive cell death induced by Xanthomonas campestris pv. malvacearum (Xcm, race 18); assay: Hypersensitive cell death induced by Xcm infiltration into cotton plant cotyledons; format: in vivo, Gossypium hirsutum; settings: 4-PBA 2 mM co-infiltrated with Xcm race 18 at 10^8 cfu/ml; four days after inoculation; FIG. 1
Method: as §3
The Xanthomonas campestris pv. malvacearum bacteria (Xcm, race 18) were cultured overnight in a rich nutritive medium (King B). After sedimentation by centrifugation, said bacteria were washed with sterile distilled water before being resuspended at a concentration of 10^8 cfu/ml. The resuspending of the cells is carried out either in sterile distilled water, or in a solution of 4-PBA at 2 mM. These two types of suspensions were infiltrated into cotton plant (Gossypium hirsutum) cotyledons on each side of the central vein for comparison.

[8] = test system: hypersensitive cell death induced by cryptogein; assay: Hypersensitive cell death induced in tobacco by cryptogein (data not shown); format: in vivo
Method: as §1

O=C(O)CCCc1ccccc1 [4-PBA, 4-phenylbutyric acid]
nonhost hypersensitive cell death in tobacco with Pseudomonas syringae pv. tomato [1]: confirm the anti-cell death properties | expression of genes encoding chaperone proteins (BiP1,2, BiP3, CNX1, CRT1) ([2]; 4-PBA 1 mM infiltrated alone, standardized to actin): significantly induce the expression of genes encoding chaperone proteins | expression of BiP1,2, CNX1 and CRT1 genes, 4-PBA combined with Pst infection ([2]; 4-PBA 1 mM plus Pst): synergistic effect | toxicity to plant cells (macroscopic symptoms) [3]: not toxic to the plant cells | hypersensitive symptoms (macroscopic) in A. thaliana leaves [4]: capable of abolishing the hypersensitive symptoms | bacterial growth (absorbance at 600 nm) [5]: strongly inhibits the growth | BiP gene expression in tobacco [6]: capable of inducing BiP gene expression in tobacco | hypersensitive symptoms (macroscopic) in cotton plant cotyledonary leaves [7]: strongly represses the hypersensitive symptoms | hypersensitive cell death induced by cryptogein in tobacco [8]: repress hypersensitive cell death
